Laboratory results published in ChEMBL document CHEMBL1201862, “PubChem BioAssay data set” (2004).
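Cultured in 96-well plates, cells were exposed to test compound for 48 hours across five concentrations. GI50 marks 50% less growth.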 Activity calls are given as the source filed them. No stated cut-off is given here; in the data, active = GI50 up to about 1.1 µM and inactive = higher.

Columns and labels:
Assay in all cases: NCI tumour cell line growth inhibition, 48 h
SK-MEL-5 = tested on: SK-MEL-5
KM12 = tested on: KM12
NCI/ADR-RES = tested on: NCI/ADR-RES
SR = tested on: SR
RXF 393 = tested on: RXF 393
NCI-H522 = tested on: NCI-H522
SF-268 = tested on: SF-268
HCT-116 = tested on: HCT-116
M14 = tested on: M14
UACC-257 = tested on: UACC-257
HCC 2998 = tested on: HCC 2998
SK-MEL-2 = tested on: SK-MEL-2
SNB-19 = tested on: SNB-19
MOLT-4 = tested on: MOLT-4
SW-620 = tested on: SW-620
A549 = tested on: A549
MDA-MB-231 = tested on: MDA-MB-231
OVCAR-4 = tested on: OVCAR-4
HOP-62 = tested on: HOP-62
BT-549 = tested on: BT-549

Measured: GI50

O=C(CSCC(=O)N/N=C\c1ccc(O)c(O)c1O)N/N=C\c1ccc(O)c(O)c1O
inactive: SK-MEL-5 18.5 µM | KM12 18.3 µM | NCI/ADR-RES 1.54 µM | SR 2.33 µM | RXF 393 34.9 µM | NCI-H522 19.1 µM | SF-268 29.5 µM | HCT-116 3.37 µM | M14 6.31 µM | UACC-257 5.25 µM | HCC 2998 14.7 µM | SK-MEL-2 28.3 µM | SNB-19 29.4 µM | MOLT-4 3.15 µM | SW-620 3.39 µM | A549 23.9 µM | MDA-MB-231 16.6 µM | OVCAR-4 2.48 µM

CC(C)(CO)NC(=O)c1cccs1
inactive: HOP-62 > 100 µM | SK-MEL-5 > 100 µM | KM12 > 100 µM | NCI/ADR-RES > 100 µM | SR > 100 µM | NCI-H522 > 100 µM | SF-268 > 100 µM | HCT-116 > 100 µM | M14 > 100 µM | UACC-257 > 100 µM | HCC 2998 > 100 µM | SK-MEL-2 > 100 µM | SNB-19 > 100 µM | MOLT-4 > 100 µM | SW-620 > 100 µM | A549 > 100 µM | MDA-MB-231 > 100 µM | OVCAR-4 > 100 µM

CCCCCCCCCCCC(=O)Oc1c(Cl)cc(Cl)c(OC(=O)C(=O)Oc2c(Cl)cc(Cl)c(OC(=O)CCCCCCCCCCC)c2Cl)c1Cl
inactive: HOP-62 > 100 µM | SK-MEL-5 > 100 µM | KM12 > 100 µM | NCI/ADR-RES > 100 µM | SR > 100 µM | RXF 393 > 100 µM | NCI-H522 > 100 µM | SF-268 > 100 µM | HCT-116 > 100 µM | BT-549 > 100 µM | UACC-257 > 100 µM | SK-MEL-2 > 10 µM | SNB-19 > 100 µM | MOLT-4 46.6 µM | SW-620 > 100 µM | A549 > 100 µM | OVCAR-4 > 100 µM

O=C1OC(c2ccccc2)=N/C1=C\c1cccc2ccccc12
inactive: HOP-62 > 100 µM | SK-MEL-5 > 100 µM | KM12 > 100 µM | SR > 100 µM | RXF 393 > 100 µM | NCI-H522 > 100 µM | SF-268 > 100 µM | HCT-116 > 100 µM | M14 > 100 µM | UACC-257 > 100 µM | HCC 2998 > 100 µM | SK-MEL-2 > 100 µM | SNB-19 > 100 µM | MOLT-4 > 100 µM | SW-620 > 100 µM | A549 > 100 µM | OVCAR-4 > 100 µM

CCSc1[nH]c(Nc2nc(-c3ccccc3)n(-c3ccccc3)n2)c(C(N)=O)c1C(N)=O
inactive: HOP-62 > 10 µM | SK-MEL-5 > 10 µM | KM12 > 10 µM | SR > 10 µM | RXF 393 6.5 µM | SF-268 > 10 µM | M14 > 10 µM | UACC-257 > 10 µM | HCC 2998 > 10 µM | MOLT-4 > 10 µM | SW-620 > 10 µM | A549 > 10 µM | MDA-MB-231 > 10 µM | OVCAR-4 5.28 µM

CSCCC(NCc1c(O)ccc2c(-c3ccccc3)cc(=O)oc12)C(=O)O (centres undefined)
inactive: HOP-62 > 100 µM | SK-MEL-5 > 100 µM | KM12 > 100 µM | NCI/ADR-RES > 100 µM | SR > 100 µM | RXF 393 > 100 µM | NCI-H522 > 100 µM | SF-268 > 100 µM | HCT-116 > 100 µM | M14 > 100 µM | UACC-257 > 100 µM | HCC 2998 > 100 µM | SK-MEL-2 > 100 µM | SNB-19 > 100 µM | MOLT-4 > 100 µM | SW-620 > 100 µM | A549 > 100 µM | MDA-MB-231 > 100 µM | OVCAR-4 > 100 µM

CCC/N=C/c1c(O)c(O)c(C(C)C)c2cc(C)c(-c3c(C)cc4c(C(C)C)c(O)c(O)c(/C=N/CCC)c4c3O)c(O)c12
inactive: HOP-62 10.2 µM | SK-MEL-5 18.7 µM | KM12 3.45 µM | NCI/ADR-RES 30.1 µM | SR 3.46 µM | RXF 393 3.54 µM | NCI-H522 1.53 µM | SF-268 6.92 µM | HCT-116 3.44 µM | M14 7.41 µM | UACC-257 9.59 µM | HCC 2998 8.61 µM | SK-MEL-2 2.76 µM | SNB-19 6.47 µM | MOLT-4 3.41 µM | SW-620 6.55 µM | A549 8.05 µM | MDA-MB-231 13.9 µM | OVCAR-4 4.38 µM

N#CN=C(NCc1ccccc1)NCc1ccccc1
inactive: HOP-62 > 100 µM | SK-MEL-5 > 100 µM | KM12 > 100 µM | SR 27.9 µM | RXF 393 > 48.6 µM | NCI-H522 > 100 µM | SF-268 18.2 µM | HCT-116 18.4 µM | M14 > 100 µM | UACC-257 > 100 µM | HCC 2998 > 100 µM | SK-MEL-2 > 100 µM | SNB-19 > 100 µM | MOLT-4 > 100 µM | SW-620 > 44 µM | A549 > 83 µM | OVCAR-4 > 100 µM

[O-][n+]1onc2c1/C(=N/O)CCC2
inactive: HOP-62 > 100 µM | SK-MEL-5 > 100 µM | KM12 > 100 µM | NCI/ADR-RES > 100 µM | SR > 100 µM | RXF 393 > 100 µM | NCI-H522 > 100 µM | SF-268 > 100 µM | HCT-116 > 100 µM | M14 > 100 µM | UACC-257 > 100 µM | HCC 2998 > 100 µM | SK-MEL-2 > 100 µM | SNB-19 > 100 µM | MOLT-4 > 100 µM | SW-620 > 100 µM | A549 > 100 µM | MDA-MB-231 > 100 µM | OVCAR-4 > 100 µM

CCOC(=O)C12C(C(=O)OC)=C(C)N(NC(=O)Nc3ccccc3)C1(N)N(NC(=O)Nc1ccccc1)C(C)=C2C(=O)OC (centres undefined)
inactive: HOP-62 20.5 µM | SK-MEL-5 19.9 µM | KM12 19.2 µM | SR 22 µM | RXF 393 29.2 µM | NCI-H522 20.9 µM | SF-268 31.3 µM | HCT-116 25.3 µM | M14 21.2 µM | UACC-257 21.1 µM | HCC 2998 25.2 µM | SK-MEL-2 19.9 µM | SNB-19 29.4 µM | MOLT-4 17.9 µM | SW-620 40.6 µM | A549 44.6 µM | OVCAR-4 39.8 µM

O=C1c2ccccc2C(=O)N1/N=C\c1ccc(Br)cc1
inactive: HOP-62 > 10 µM | SK-MEL-5 > 10 µM | KM12 > 10 µM | SR > 10 µM | RXF 393 > 10 µM | NCI-H522 > 100 µM | SF-268 > 10 µM | HCT-116 > 10 µM | M14 > 10 µM | UACC-257 > 10 µM | HCC 2998 > 10 µM | SK-MEL-2 > 10 µM | SNB-19 > 10 µM | MOLT-4 > 10 µM | SW-620 > 10 µM | A549 > 10 µM | OVCAR-4 > 10 µM

O=C(O)c1ccc(CI)cc1
inactive: HOP-62 20.3 µM | SK-MEL-5 17 µM | NCI/ADR-RES 16.1 µM | SR 21.6 µM | RXF 393 17.7 µM | NCI-H522 3.9 µM | SF-268 15.4 µM | HCT-116 14.5 µM | M14 17.4 µM | UACC-257 19.3 µM | HCC 2998 18 µM | SK-MEL-2 17.9 µM | SNB-19 13.8 µM | MOLT-4 15.3 µM | SW-620 14.6 µM | A549 17.6 µM | MDA-MB-231 21.8 µM | OVCAR-4 14.3 µM

O=C(/N=C1\SCCN1C(=O)C(C(F)(F)F)C(F)(F)F)C(C(F)(F)F)C(F)(F)F
inactive: HOP-62 > 100 µM | SK-MEL-5 > 100 µM | NCI/ADR-RES > 100 µM | SR > 100 µM | RXF 393 > 100 µM | NCI-H522 > 100 µM | HCT-116 > 100 µM | M14 > 100 µM | UACC-257 > 100 µM | HCC 2998 > 100 µM | SK-MEL-2 > 100 µM | SNB-19 > 100 µM | MOLT-4 > 100 µM | SW-620 > 100 µM | A549 > 100 µM | MDA-MB-231 > 100 µM | OVCAR-4 > 100 µM

Cc1c(NC(=O)CCl)c(=O)oc2c(C)c3occc(=O)c3cc12
inactive: HOP-62 13.8 µM | SK-MEL-5 10.9 µM | KM12 11.7 µM | NCI/ADR-RES 18.6 µM | SR 6.49 µM | SF-268 6.95 µM | HCT-116 11.6 µM | M14 13.1 µM | UACC-257 12.1 µM | HCC 2998 16.9 µM | SNB-19 15.8 µM | MOLT-4 1.37 µM | SW-620 11.5 µM | A549 14.5 µM | OVCAR-4 11.5 µM

CC(C)N(C(=O)C12C3C4C5(C#N)C3C1(I)C5C42I)C(C)C (centres undefined)
inactive: HOP-62 > 100 µM | SK-MEL-5 > 100 µM | KM12 > 100 µM | SR 37.8 µM | RXF 393 > 100 µM | NCI-H522 > 100 µM | SF-268 > 100 µM | HCT-116 17.8 µM | M14 > 100 µM | UACC-257 > 100 µM | HCC 2998 > 100 µM | SK-MEL-2 > 100 µM | SNB-19 > 100 µM | MOLT-4 > 100 µM | SW-620 > 27 µM | A549 > 100 µM | OVCAR-4 > 45.5 µM
